In ChEMBL document CHEMBL1201862, “PubChem BioAssay data set” (2004):
Values belong to the compound of their own block, whether it stands above or below them. The source made the active and inactive calls.

Assays:
Mu-type opioid receptor [1] = target: T1, Mu-type opioid receptor (Homo sapiens, UniProt P35372); test: mu opioid receptor activators, image-based, SAR follow-up (AID 2352); type: functional
[2] = target: T2, Delta-type opioid receptor (Homo sapiens, UniProt P41143); test: DOR agonists, SAR follow-up, image-based (AID 2370); type: functional
T2 sequence (P41143 whole entry): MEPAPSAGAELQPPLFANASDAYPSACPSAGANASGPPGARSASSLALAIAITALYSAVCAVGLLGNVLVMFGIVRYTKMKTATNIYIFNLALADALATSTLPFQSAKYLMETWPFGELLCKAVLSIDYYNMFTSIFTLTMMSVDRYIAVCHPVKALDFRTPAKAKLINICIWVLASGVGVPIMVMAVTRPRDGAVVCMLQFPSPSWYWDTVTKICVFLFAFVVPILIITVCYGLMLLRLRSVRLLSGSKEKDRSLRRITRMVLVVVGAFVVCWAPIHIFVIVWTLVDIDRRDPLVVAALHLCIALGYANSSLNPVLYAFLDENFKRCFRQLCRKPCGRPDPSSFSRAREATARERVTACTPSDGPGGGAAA

[3] = target: T3, Kappa-type opioid receptor (Homo sapiens, UniProt P41145); test: kappa opioid receptor blockers, image-based, SAR follow-up (AID 2348); type: functional
T3 sequence (P41145 whole entry): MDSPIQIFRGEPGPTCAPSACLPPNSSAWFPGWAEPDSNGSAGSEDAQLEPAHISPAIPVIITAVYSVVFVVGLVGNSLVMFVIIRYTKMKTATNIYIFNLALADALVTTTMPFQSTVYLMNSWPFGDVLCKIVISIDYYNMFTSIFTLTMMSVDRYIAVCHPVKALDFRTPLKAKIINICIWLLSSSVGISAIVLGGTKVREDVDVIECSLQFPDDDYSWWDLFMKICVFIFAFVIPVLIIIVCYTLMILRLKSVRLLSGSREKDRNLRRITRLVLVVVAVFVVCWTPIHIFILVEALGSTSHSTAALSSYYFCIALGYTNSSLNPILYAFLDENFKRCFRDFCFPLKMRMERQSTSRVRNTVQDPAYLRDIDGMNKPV

Mu-type opioid receptor [4] = target: T1, Mu-type opioid receptor; test: mu opioid receptor blockers – image-based, SAR follow-up (AID 2420); type: functional;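 further: compounds added before stimulation of receptor with agonist DAMGO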
[5] = target: T3, Kappa-type opioid receptor; test: kappa opioid receptor activation potency – imaging, image-based, SAR follow-up (AID 2359); type: functional
[6] = target: T4, Tyrosine-protein phosphatase non-receptor type 7 (Homo sapiens, UniProt P35236); test: SAR analysis of chemical inhibitors of HePTP using a Fluorescent assay - Set 2. [Related pubchem assays (depositor defined):AID1059, AID1077, AID1661, AID2085, AID521]; type: functional
T4 sequence (P35236 whole entry): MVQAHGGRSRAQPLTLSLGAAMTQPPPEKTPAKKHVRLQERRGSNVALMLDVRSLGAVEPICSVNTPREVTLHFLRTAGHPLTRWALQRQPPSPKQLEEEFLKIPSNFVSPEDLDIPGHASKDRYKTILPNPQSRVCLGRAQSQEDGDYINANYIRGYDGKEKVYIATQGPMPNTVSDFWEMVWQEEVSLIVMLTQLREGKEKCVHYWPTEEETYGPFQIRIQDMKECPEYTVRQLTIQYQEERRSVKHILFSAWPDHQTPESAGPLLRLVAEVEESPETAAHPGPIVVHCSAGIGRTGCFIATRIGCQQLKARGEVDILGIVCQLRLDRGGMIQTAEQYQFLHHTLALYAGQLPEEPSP

[7] = target: Dual specificity protein phosphatase 3 (Homo sapiens, UniProt P51452); test: SAR VHR1 Fluorescent Assay for In Vitro dose response studies Set 2. [Related pubchem assays (depositor defined):AID1654, AID1661, AID1878]; type: functional
Chain of Dual specificity protein phosphatase 3 (P51452 whole entry): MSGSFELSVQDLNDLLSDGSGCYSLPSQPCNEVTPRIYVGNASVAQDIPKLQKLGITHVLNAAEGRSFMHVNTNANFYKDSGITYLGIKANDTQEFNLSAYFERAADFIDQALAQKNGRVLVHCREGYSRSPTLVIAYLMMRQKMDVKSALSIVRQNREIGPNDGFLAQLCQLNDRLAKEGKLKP

[8] = target: T2, Delta-type opioid receptor; test: delta opioid receptor blockers – image-based, SAR follow-up (AID 2357); type: functional
[9] = target: T3, Kappa-type opioid receptor; test: kappa opioid receptor blockers, cell-based, luminescence, beta-arrestin, SAR follow-up (AID 2285); type: functional
Mu-type opioid receptor [10] = target: T1, Mu-type opioid receptor; test: SAR Analysis of Antagonists of the MOR Receptor using an Image-Based Assay - Set 2. [Related pubchem assays (depositor defined):AID1777, AID1785, AID1786, AID1966, AID2133, AID2136, AID2284, AID2285, AID2420]; type: functional
[11] = target: T3, Kappa-type opioid receptor; test: kappa opioid receptor activation by imaging – image-based, set 3, SAR follow-up (AID 488833); type: functional
Mu-type opioid receptor [12] = target: T1, Mu-type opioid receptor; test: SAR Analysis of Agonists of the MOR Receptor using an Image-Based Assay - Set 3. [Related pubchem assays (depositor defined):AID1777, AID1785, AID1786, AID1966, AID2133, AID2136, AID2284, AID2285, AID2352]; type: functional
[13] = target: T3, Kappa-type opioid receptor; test: SAR analysis of Antagonists of the Kappa Opioid Receptor (KOR) using an Image-Based Assay - Set 2. [Related pubchem assays (depositor defined):AID1777, AID1785, AID1786, AID1966, AID2133, AID2136, AID2284, AID2285, AID2348]; type: functional
Mu-type opioid receptor [14] = target: T1, Mu-type opioid receptor; test: SAR Analysis of Agonists of the MOR Receptor using an Image-Based Assay - Set 2. [Related pubchem assays (depositor defined):AID1777, AID1785, AID1786, AID1966, AID2133, AID2136, AID2284, AID2285, AID2352]; type: functional
[15] = target: T3, Kappa-type opioid receptor; test: SAR analysis of small molecule agonists of the kappa opioid receptor via a luminescent beta-arrestin assay - Set 2. [Related pubchem assays (depositor defined):AID1777, AID1785, AID1786, AID1966, AID2133, AID2136, AID2284, AID449737]; type: functional
[16] = target: T2, Delta-type opioid receptor; test: SAR Analysis of Agonists of the DOR Receptor using an Image-Based Assay - Set 2. [Related pubchem assays (depositor defined):AID1777, AID1785, AID1786, AID1966, AID2133, AID2136, AID2284, AID2285, AID2370]; type: functional
[17] = target: T2, Delta-type opioid receptor; test: SAR Analysis of Antagonists of the DOR Receptor using an Image-Based Assay - Set 2. [Related pubchem assays (depositor defined):AID1777, AID1785, AID1786, AID1966, AID2133, AID2136, AID2284, AID2285, AID2357]; type: functional
[18] = target: T2, Delta-type opioid receptor; test: SAR Analysis of Agonists of the DOR Receptor using an Image-Based Assay - Set 3. [Related pubchem assays (depositor defined):AID1777, AID1786]; type: functional
[19] = target: T3, Kappa-type opioid receptor; test: SAR analysis of small molecule agonists of the kappa opioid receptor via a luminescent beta-arrestin assay - Set 3. [Related pubchem assays (depositor defined):AID1777, AID1785, AID1786, AID1966, AID2133, AID2136, AID2284, AID2500]; type: functional
[20] = target: T3, Kappa-type opioid receptor; test: SAR analysis of Agonists of the Kappa Opioid Receptor (KOR) using an Image-Based Assay - Set 2. [Related pubchem assays (depositor defined):AID1777, AID1786, AID1966, AID2133, AID2136, AID2284, AID2285, AID2359]; type: functional
Exodeoxyribonuclease V = Exodeoxyribonuclease V (Escherichia coli (strain K12), UniProt P04993+P07648+P08394); test: RecBCD inhibition via phage-restricted bacterial growth – absorbance, V66 E. coli, mutant T4 phage, counter-screen for AddAB inhibitor project, dose response (AID 492957); type: functional, cell-based, Escherichia coli str. K-12 substr. MG1655
Chain of Exodeoxyribonuclease V (P04993 whole entry): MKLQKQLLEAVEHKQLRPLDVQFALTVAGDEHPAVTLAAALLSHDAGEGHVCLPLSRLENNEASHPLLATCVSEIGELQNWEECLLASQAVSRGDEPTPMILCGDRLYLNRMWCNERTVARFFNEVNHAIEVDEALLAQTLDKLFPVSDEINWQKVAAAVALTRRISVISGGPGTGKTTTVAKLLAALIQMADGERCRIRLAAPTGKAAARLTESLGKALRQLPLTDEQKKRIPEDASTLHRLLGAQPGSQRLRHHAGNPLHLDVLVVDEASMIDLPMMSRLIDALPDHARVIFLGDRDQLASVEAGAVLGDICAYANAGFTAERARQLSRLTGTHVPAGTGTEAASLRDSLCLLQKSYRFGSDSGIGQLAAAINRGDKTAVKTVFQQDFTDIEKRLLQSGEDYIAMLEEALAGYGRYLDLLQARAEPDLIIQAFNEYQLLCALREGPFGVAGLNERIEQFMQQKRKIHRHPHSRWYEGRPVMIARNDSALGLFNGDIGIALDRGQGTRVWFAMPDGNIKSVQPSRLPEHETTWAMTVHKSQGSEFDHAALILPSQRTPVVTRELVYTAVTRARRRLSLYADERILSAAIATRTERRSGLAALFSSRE
Chain of Exodeoxyribonuclease V (P07648 whole entry): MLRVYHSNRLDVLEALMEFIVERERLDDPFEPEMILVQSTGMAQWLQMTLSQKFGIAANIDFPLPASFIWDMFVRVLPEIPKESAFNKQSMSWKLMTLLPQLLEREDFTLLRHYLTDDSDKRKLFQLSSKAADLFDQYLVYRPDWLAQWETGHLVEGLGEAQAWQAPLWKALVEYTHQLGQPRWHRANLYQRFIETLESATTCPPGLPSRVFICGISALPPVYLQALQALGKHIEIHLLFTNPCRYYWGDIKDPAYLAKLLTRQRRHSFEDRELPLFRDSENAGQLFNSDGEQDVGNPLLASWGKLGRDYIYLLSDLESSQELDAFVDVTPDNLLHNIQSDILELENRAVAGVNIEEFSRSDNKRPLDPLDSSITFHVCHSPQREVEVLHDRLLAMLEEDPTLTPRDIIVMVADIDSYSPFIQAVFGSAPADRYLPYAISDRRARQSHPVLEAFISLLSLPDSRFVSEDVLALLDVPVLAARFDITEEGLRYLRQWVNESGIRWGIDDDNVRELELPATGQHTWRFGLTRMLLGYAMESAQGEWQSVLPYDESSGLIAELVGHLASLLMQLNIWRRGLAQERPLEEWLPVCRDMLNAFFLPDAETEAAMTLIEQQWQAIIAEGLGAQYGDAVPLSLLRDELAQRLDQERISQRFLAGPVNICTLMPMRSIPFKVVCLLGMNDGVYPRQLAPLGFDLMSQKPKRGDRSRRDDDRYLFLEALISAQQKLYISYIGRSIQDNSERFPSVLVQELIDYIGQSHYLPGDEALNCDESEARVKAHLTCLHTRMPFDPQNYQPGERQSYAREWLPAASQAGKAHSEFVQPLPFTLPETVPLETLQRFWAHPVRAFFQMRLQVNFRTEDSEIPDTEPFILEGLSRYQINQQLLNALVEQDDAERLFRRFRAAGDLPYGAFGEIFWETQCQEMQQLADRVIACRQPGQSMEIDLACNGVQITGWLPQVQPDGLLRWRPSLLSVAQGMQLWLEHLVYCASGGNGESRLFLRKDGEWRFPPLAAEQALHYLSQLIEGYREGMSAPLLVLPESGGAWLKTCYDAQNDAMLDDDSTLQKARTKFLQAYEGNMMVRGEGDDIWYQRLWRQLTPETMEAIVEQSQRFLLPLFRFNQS
Chain of Exodeoxyribonuclease V (P08394 whole entry): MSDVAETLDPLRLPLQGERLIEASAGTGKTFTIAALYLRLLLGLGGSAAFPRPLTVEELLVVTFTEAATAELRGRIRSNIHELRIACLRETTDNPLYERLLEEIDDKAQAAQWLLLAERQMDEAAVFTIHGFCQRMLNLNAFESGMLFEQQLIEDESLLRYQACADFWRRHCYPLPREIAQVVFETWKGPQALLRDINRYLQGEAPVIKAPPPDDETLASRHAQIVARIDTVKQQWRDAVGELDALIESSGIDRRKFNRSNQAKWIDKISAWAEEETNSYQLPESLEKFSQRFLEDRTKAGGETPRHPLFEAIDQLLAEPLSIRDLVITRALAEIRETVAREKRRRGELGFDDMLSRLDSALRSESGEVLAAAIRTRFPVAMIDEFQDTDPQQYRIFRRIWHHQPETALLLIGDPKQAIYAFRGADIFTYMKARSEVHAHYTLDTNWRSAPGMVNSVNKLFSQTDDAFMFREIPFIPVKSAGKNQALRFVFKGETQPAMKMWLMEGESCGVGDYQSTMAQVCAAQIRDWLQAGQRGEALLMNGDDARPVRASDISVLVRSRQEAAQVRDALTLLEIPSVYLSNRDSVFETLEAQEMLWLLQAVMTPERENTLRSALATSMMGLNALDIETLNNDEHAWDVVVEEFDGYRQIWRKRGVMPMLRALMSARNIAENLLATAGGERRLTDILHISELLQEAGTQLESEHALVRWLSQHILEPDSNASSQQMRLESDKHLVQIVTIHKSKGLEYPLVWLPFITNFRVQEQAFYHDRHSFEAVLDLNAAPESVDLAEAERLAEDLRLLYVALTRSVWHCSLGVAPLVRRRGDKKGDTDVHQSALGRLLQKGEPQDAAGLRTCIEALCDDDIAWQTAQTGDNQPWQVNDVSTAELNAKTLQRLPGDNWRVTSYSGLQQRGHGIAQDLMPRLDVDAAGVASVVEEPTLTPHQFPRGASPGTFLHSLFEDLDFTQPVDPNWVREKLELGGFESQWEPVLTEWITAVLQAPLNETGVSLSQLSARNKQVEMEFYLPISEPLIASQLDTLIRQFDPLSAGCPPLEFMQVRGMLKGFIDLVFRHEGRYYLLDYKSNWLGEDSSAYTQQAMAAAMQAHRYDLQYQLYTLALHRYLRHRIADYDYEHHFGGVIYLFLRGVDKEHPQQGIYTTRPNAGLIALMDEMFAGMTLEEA

[21] = Counterscreen for AddAB inhibitors: absorbance-based bacterial cell-based high throughput dose response assay for inhibitors of bacterial viability. [Related pubchem assays (depositor defined):AID435030, AID449728, AID449731, AID488942, AID488955, AID488956]; type: functional

T1 sequence (P35372 whole entry): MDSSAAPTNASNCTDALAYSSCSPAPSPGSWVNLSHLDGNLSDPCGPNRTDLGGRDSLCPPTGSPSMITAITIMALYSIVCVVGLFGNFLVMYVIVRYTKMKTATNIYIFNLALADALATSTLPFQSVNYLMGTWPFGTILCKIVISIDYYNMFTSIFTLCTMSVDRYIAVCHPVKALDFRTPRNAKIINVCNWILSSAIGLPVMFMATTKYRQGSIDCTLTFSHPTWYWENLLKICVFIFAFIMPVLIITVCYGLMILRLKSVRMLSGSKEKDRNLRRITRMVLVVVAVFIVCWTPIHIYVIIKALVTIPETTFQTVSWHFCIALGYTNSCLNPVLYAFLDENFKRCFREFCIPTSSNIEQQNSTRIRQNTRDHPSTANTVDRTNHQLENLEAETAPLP

Compound: O=C(NC(NC(=S)Nc1ccc(Cl)cc1Cl)C(Cl)(Cl)Cl)OCc1ccccc1 (configuration not stated)
- EC50 (Mu-type opioid receptor [1]): > 32 µM (inactive)
- EC50 [2]: > 32 µM (inactive)
- IC50 [3]: 0.879 µM (active)
- IC50 (Mu-type opioid receptor [4]): > 32 µM (inactive)
- EC50 [5]: > 32 µM (inactive)
- IC50 [6]: > 100 µM (inactive)
- IC50 [7]: > 100 µM (inactive)
- IC50 [8]: > 32 µM (inactive)
- IC50 [9]: 2.09 µM (active)

- IC50 (Mu-type opioid receptor [10]): > 32 µM (inactive)
- EC50 [11]: 0.694 µM (active)
- EC50 (Mu-type opioid receptor [12]): > 32 µM (inactive)
- IC50 [13]: > 32 µM (inactive)
- EC50 (Mu-type opioid receptor [14]): > 32 µM (inactive)
- EC50 [15]: 2.27 µM (active)
- EC50 [16]: > 32 µM (inactive)
- IC50 [17]: > 32 µM (inactive)
- EC50 [18]: > 64 µM (inactive)
- EC50 [19]: 1.38 µM (active)
- EC50 [20]: 8.11 µM (active)
Compound: Clc1ccc(CSc2nnc(-c3ccccn3)n2Cc2cccs2)c(Cl)c1

Compound: O=C(N/N=C\c1cccc(Cl)c1)c1ccc(Cn2cc(Br)c([N+](=O)[O-])n2)o1
- IC50 (Exodeoxyribonuclease V): > 119 µM (inactive)
- IC50 [21]: > 119 µM (inactive)
